Experimental data taken from the OligoGym collection.
HELM strings list units from the 5' end as sugar, base in round brackets, then linkage (d deoxyribose, r ribose, m 2'-O-methyl, p phosphodiester). Strings are as the collection lists them, not checked against the first reports. ss, as = sense and antisense strand; [lna] = locked nucleic acid (LNA); [s4r] = 4'-thioribose; [fl2r] = 2'-fluoro

Conditions: siRNA
Note: test system not given here.

Substance	target mRNA knockdown
RNA1{m(U)p.r(C)p.m(C)p.r(U)p.m(C)p.r(G)p.m(U)p.r(C)p.m(G)p.r(U)p.m(C)p.r(U)p.m(G)p.r(U)p.m(U)p.r(C)p.m(U)p.r(A)p.m(A)p.r(T)p.r(T)}|RNA2{r(U)p.r(U)p.m(A)p.r(G)p.m(A)p.r(A)p.r(C)p.r(A)p.r(G)p.r(A)p.r(C)p.r(G)p.r(A)p.r(C)p.r(G)p.r(A)p.m(G)p.r(G)p.m(A)p.r(T)p.r(T)}$$$RNA1{StrandType:ss}|RNA2{StrandType:as}$	63%
RNA1{r(C)p.m(U)p.r(G)p.r(A)p.r(C)p.r(C)p.r(G)p.r(G)p.r(A)p.r(A)p.r(G)p.r(C)p.r(G)p.r(C)p.r(U)p.m(U)p.r(A)p.r(A)p.r(A)p.r(T)p.r(T)}|RNA2{r(U)p.r(U)p.m(U)p.r(A)p.r(A)p.r(G)p.r(C)p.r(G)p.r(C)p.r(U)p.r(U)p.r(C)p.r(C)p.r(G)p.r(G)p.r(U)p.m(C)p.r(A)p.r(G)p.r(T)p.r(T)}$$$RNA1{StrandType:ss}|RNA2{StrandType:as}$	85%
RNA1{r(A)p.r(G)p.r(A)p.r(G)p.r(G)p.r(A)p.r(C)p.r(C)p.m(U)p.r(A)p.r(G)p.r(A)p.r(A)p.r(G)p.r(G)p.r(C)p.r(G)p.r(G)p.r(C)p.r(T)p.r(T)}|RNA2{r(G)p.r(C)p.r(C)p.r(G)p.r(C)p.r(C)p.m(U)p.m(U)p.r(C)p.m(U)p.r(A)p.r(G)p.r(G)p.m(U)p.r(C)p.r(C)p.m(U)p.r(C)p.m(U)p.r(T)p.r(T)}$$$RNA1{StrandType:ss}|RNA2{StrandType:as}$	72%
RNA1{r(A)p.r(G)p.r(A)p.r(G)p.r(A)p.r(G)p.r(G)p.[fl2r](U)p.r(G)p.r(G)p.r(A)p.r(G)p.r(G)p.r(U)p.r(A)p.r(U)p.r(C)p.r(U)p.r(C)p.r(T)p.r(T)}|RNA2{r(G)p.r(A)p.r(G)p.r(A)p.[fl2r](U)p.r(A)p.r(C)p.r(C)p.r(U)p.r(C)p.r(C)p.r(A)p.r(C)p.r(C)p.r(U)p.r(C)p.r(U)p.r(C)p.r(U)p.r(T)p.r(T)}$$$RNA1{StrandType:ss}|RNA2{StrandType:as}$	88%
RNA1{r(C)p.r(C)p.r(U)p.r(C)p.r(C)p.r(C)p.m(C)p.r(A)p.r(U)p.r(C)p.r(C)p.r(C)p.r(C)p.r(U)p.r(U)p.r(U)p.m(U)p.r(A)p.r(A)p.r(T)p.r(T)}|RNA2{r(U)p.r(U)p.m(A)p.r(A)p.r(A)p.r(A)p.r(G)p.r(G)p.r(G)p.r(G)p.r(A)p.m(U)p.r(G)p.r(G)p.r(G)p.r(G)p.r(A)p.r(G)p.r(G)p.r(T)p.r(T)}$$$RNA1{StrandType:ss}|RNA2{StrandType:as}$	80%
RNA1{[fl2r](G)p.r(G)p.[fl2r](C)p.r(U)p.[fl2r](U)p.r(A)p.[fl2r](G)p.r(U)p.[fl2r](C)p.r(A)p.[fl2r](C)p.r(U)p.[fl2r](C)p.r(C)p.[fl2r](U)p.r(C)p.[fl2r](U)p.r(U)p.[fl2r](C)p.r(T)p.r(T)}|RNA2{r(G)p.r(A)p.r(A)p.r(G)p.r(A)p.r(G)p.r(G)p.r(A)p.r(G)p.r(U)p.r(G)p.r(A)p.r(C)p.r(U)p.r(A)p.r(A)p.r(G)p.r(C)p.r(C)p.r(T)p.r(T)}$$$RNA1{StrandType:ss}|RNA2{StrandType:as}$	23%
RNA1{m(A)p.r(G)p.m(C)p.r(G)p.m(A)p.r(U)p.m(C)p.r(C)p.m(C)p.r(G)p.m(A)p.r(A)p.m(C)p.r(A)p.m(A)p.r(G)p.m(U)p.r(A)p.m(U)p.r(T)p.r(T)}|RNA2{r(A)p.r(U)p.r(A)p.m(C)p.r(U)p.r(U)p.r(G)p.r(U)p.r(U)p.m(C)p.r(G)p.r(G)p.r(G)p.r(A)p.r(U)p.m(C)p.r(G)p.m(C)p.r(U)p.r(T)p.r(T)}$$$RNA1{StrandType:ss}|RNA2{StrandType:as}$	34%
RNA1{m(U)p.r(A)p.m(G)p.r(C)p.m(C)p.r(A)p.m(G)p.r(A)p.m(G)p.r(C)p.m(C)p.r(A)p.m(A)p.r(A)p.r(G)p.m(A)p.r(A)p.r(G)p.r(C)p.r(T)p.r(T)}|RNA2{r(G)p.r(C)p.m(U)p.m(U)p.r(C)p.m(U)p.m(U)p.m(U)p.r(G)p.r(G)p.r(C)p.m(U)p.r(C)p.m(U)p.r(G)p.r(G)p.r(C)p.m(U)p.r(A)p.r(T)p.r(T)}$$$RNA1{StrandType:ss}|RNA2{StrandType:as}$	75%
RNA1{r(G)p.m(C)p.r(A)p.r(G)p.r(C)p.r(A)p.r(C)p.r(G)p.r(A)p.r(C)p.r(U)p.r(U)p.r(C)p.r(U)p.r(U)p.r(C)p.r(A)p.r(A)p.r(G)p.r(U)p.r(U)}|RNA2{r(C)p.r(U)p.r(U)p.r(G)p.r(A)p.r(A)p.r(G)p.r(A)p.r(A)p.r(G)p.r(U)p.r(C)p.r(G)p.r(U)p.r(G)p.r(C)p.r(U)p.r(G)p.r(C)p.r(U)p.r(U)}$$$RNA1{StrandType:ss}|RNA2{StrandType:as}$	71.7%
RNA1{r(C)p.r(G)p.[s4r](U)p.r(A)p.r(C)p.r(G)p.r(C)p.r(G)p.r(G)p.r(A)p.r(A)p.[s4r](U)p.r(A)p.r(C)p.[s4r](U)p.[s4r](U)p.r(C)p.r(G)p.r(A)p.r(T)p.r(T)}|RNA2{r(U)p.r(C)p.r(G)p.r(A)p.r(A)p.r(G)p.r(U)p.r(A)p.r(U)p.r(U)p.r(C)p.r(C)p.r(G)p.r(C)p.r(G)p.r(U)p.r(A)p.r(C)p.r(G)p.r(T)p.r(T)}$$$RNA1{StrandType:ss}|RNA2{StrandType:as}$	96.3%
RNA1{m(G)p.r(G)p.m(C)p.r(G)p.m(G)p.r(G)p.m(C)p.r(U)p.m(C)p.r(U)p.m(U)p.r(U)p.m(C)p.r(C)p.m(U)p.r(A)p.m(U)p.r(U)p.m(C)p.r(T)p.r(T)}|RNA2{r(G)p.r(A)p.r(A)p.r(U)p.r(A)p.r(G)p.r(G)p.r(A)p.r(A)p.r(A)p.r(G)p.r(A)p.r(G)p.r(C)p.r(C)p.r(C)p.r(G)p.r(C)p.r(C)p.r(T)p.r(T)}$$$RNA1{StrandType:ss}|RNA2{StrandType:as}$	51%
RNA1{m(G)p.r(C)p.m(U)p.r(U)p.m(U)p.r(A)p.m(A)p.r(G)p.m(G)p.r(A)p.m(A)p.r(C)p.m(U)p.r(G)p.m(G)p.r(A)p.m(A)p.r(G)p.m(G)p.r(T)p.r(T)}|RNA2{r(C)p.r(C)p.r(U)p.r(U)p.r(C)p.r(C)p.r(A)p.m(G)p.r(U)p.r(U)p.r(C)p.r(C)p.r(U)p.r(U)p.r(A)p.r(A)p.r(A)p.m(G)p.r(C)p.r(T)p.r(T)}$$$RNA1{StrandType:ss}|RNA2{StrandType:as}$	51%
RNA1{r(C)p.r(U)p.r(U)p.r(A)p.r(C)p.r(G)p.r(C)p.r(U)p.r(G)p.r(A)p.r(G)p.r(U)p.r(A)p.r(C)p.r(U)p.r(U)p.r(C)p.r(G)p.r(A)p.r(T)p.r(T)}|RNA2{r(U)p.r(C)p.r(G)p.r(A)p.r(A)p.r(G)p.r(U)p.r(A)p.r(C)p.r(U)p.r(C)p.r(A)p.r(G)p.r(C)p.r(G)p.r(U)p.[lna](A)p.r(A)p.r(G)p.r(T)p.r(T)}$$$RNA1{StrandType:ss}|RNA2{StrandType:as}$	93%
RNA1{m(A)p.m(A)p.r(C)p.r(C)p.r(C)p.m(A)p.r(C)p.r(C)p.m(A)p.r(C)p.m(A)p.r(G)p.r(C)p.m(U)p.m(A)p.r(G)p.m(A)p.m(A)p.r(C)p.m(U)p.m(U)}|RNA2{r(A)p.r(A)p.r(G)p.r(U)p.r(U)p.r(C)p.r(U)p.r(A)p.r(G)p.r(C)p.r(U)p.r(G)p.r(U)p.r(G)p.r(G)p.r(U)p.r(G)p.r(G)p.r(G)p.r(U)p.r(U)}$$$RNA1{StrandType:ss}|RNA2{StrandType:as}$	51%
